Usually MBC stands for the lowest tested concentration that kills the bacteria rather than only halting them. High values mean weaker bactericidal potency, low ones greater bactericidal potency. The term MIC denotes the lowest concentration that inhibits growth of the organism. A high value points to a need for much substance. Broadly, the LC50 is the concentration lethal to half of the exposed cells or organisms. A higher LC50 goes with a less lethal substance.

Data set [1] concerns Staphylococcu aureus ATCC 25923. Description: Microdilution broth MIC/MBC. Conditions: 24 h at 25° C., dark. It counts as cell-based, Staphylococcus aureus. As for the experimental part:
b) Serial dilution test: the antibiotic activity is determined quantitatively by using the known sensitivity of a test strain towards an antibiotic which is expressed numerically as the minimal inhibitory concentration (MIC) and the minimal bactericidal concentration (MBC).
Procedure: serial dilutions of the antibiotic to be tested are pipetted into the antibiotic broth, this is then inoculated with a defined quantity of the relevant test strain (FIG. 4).
The Minimum Inhibitory Concentration (MIC) was defined as the lowest concentration of antibiotic which prevented visual turbidity after incubation.
The Minimum Bactericidal Concentration (MBC) is defined as the lowest concentration of an antibiotic killing the majority of a bacterial inoculum (99.9%, equivalent to a thousand-fold reduction of the inoculum). Method: Following a broth dilution MIC test, from each tube in the dilution series a defined volume (20 μL) is spread onto plates without antibiotics. […] The plates were incubate overnight (longer for slow growing bacteria) and then counted the number of colonies growing from each of the test tubes. The number of colonies corresponding to a thousand-fold reduction (MBC) can be calculated if the colony count of the start inoculum is known. […]
Antimicrobial assays were performed in dark, and results were read after 24 h of incubation at 25° C. […]
On the technique in general: Dilution methods test growth across graded concentrations, often in twofold steps.

Data set [2] in a line: Hydrolysis test carried out in the dark. It counts as physicochemical. From the text:
From the hydrolysis test carried out in the dark, MNB and MPB appear to be readily degradable at a pH compatible with environmental conditions.

The subject of data set [3] is nauplii of Artemia salina. Description: Artemia efficacy test.
Procedure: This efficacy test was carried out by using nauplii of Artemia salina (Crustacea: Anacostraca).
Cysts reactivation has been carried out 24 hours before the execution of tests. […] Beakers, hermetically closed and aerated with pre-filtered air (0,22 μm), were incubated for 24 hours at 25° C., without photoperiod. For the tests E3 developing stage nauplii were employed (24 hours after cysts reactivation). Nauplii were divided from not-opened cysts by exploiting their positive fototactism: a light beam is placed near the beaker, obtaining a considerable concentration of organisms, that can be taken by using a Pasteur pipette. The following MNB concentrations have been tested: 0-0.05-0.1-0.5-1-5-10 ppm (mg/L). These solutions have been prepared immediately before carrying out the tests using natural filtered (0.22 μm) sea water (NFSW). For tests, multiwell plates (25 wells) have been used, each well has a capacity of 4 ml. In the first column there was the control solution (water without product), and in the following the different concentrations in increasing order. In each well about 20-25 individuals were added, each concentration was repeated in four replicates. Multiwell plates, hermetically closed with parafilm and lid, were incubated at dark for 24-48 hours at 25° C. […] Larvae were considered dead when there was completely no movement for 10 seconds.
Mortality percentage was calculated as the mean of the four replicates for each concentration. Data were analysed by using the Probits method, in order to calculate the lethal concentration for the 50% of the population (LC50).
The next data set relates to Tigriopus fulvus. Description: Copepods efficacy test. The settings on record: Tigriopus fulvus nauplii. It counts as in vivo. The protocol:
For that, efficacy test was carried out by using Tigriopus fulvus, it is a shallow-water marine species (Crustacea, Copepoda, Harpactico.da) characterized by […], all variously deep-orange coloured: five nauplius substages and five copepodid substages. Nauplii have a subcircular shape, are characterized by a single red eye, and develop within 6 to 7 days. Copepods are recognisable because of their abdominal segment formation, although the last substage is difficult to distinguish from the adult female at the end of the 7-day development period. Adult sizes range from 0.8 to 1.0 mm for males and from 1.0 to 1.2 mm for females. Sexual dimorphism is detectable only by the pincer shape of antenna 1, whereas ovigerous females can quickly be recognized because of their large egg sacs. T. fulvus is a vector for the transport of Vibrio spp; it is well documented that the persistence of V. cholerae in the aquatic environment is facilitated by its ability to colonize various substrates, including zooplankton surfaces (i.e., copepods).
Copepods, sampled in their natural habitat, have been moved through suitable containers to the laboratory, where they were subjected to a specific treatment. They were first filtered through a […] mesh, then washed with sterile sea-water and transferred to small 3 litres aquaria, with natural filtered (0.22 μm) sea water, T=20+0,5° C. Copepods were fed with microalgae (Chlorella spp, Tetraselmis suecica) and commercial yeast (Saccharomices spp). After the acclimatization period (one month), about 500 females were chosen and separated. The naupliar stage was then used for the efficacy test. […] Nauplii were used 24 hours after their hatching, multiwell plates (25 wells) were used for these tests, about 15 individuals for each well. Each concentration was performed in six replicates, plates were kept at dark, at 20° C.

In data set [4] the test system is Mytilus galloprovincialis. Description: Mussels efficacy test (trocophora and veliger larvae). It counts as in vivo. Conditions: after 24 hours. The protocol:
Mussels are bivalve shellfish that grow quickly and profusely. They have two identical, convex shells. These shells are elongate, triangular and joined by a rubbery hinge ligament on the upper side. There are three main periods in the Mytilus galloprovincialis life cycle: the larval, juvenile, and adult stages. The larvae are planktonic (float in water column) during their initial three life stages: trochophore, veliger, and pediveliger.
Efficacy tests were carried out by using two larval stages of this organism: trocophora and veliger. Adult specimens of this organism were collected and transferred into our laboratories, where they were cleaned from debris, and put in single 200 ml beakers, with […] filtered natural sea-water. Through a thermal shock, sexual products (eggs and sperma) were obtained. Fertilized eggs (about 300.000) were filtered and put in 1000 ml beakers, with […] filtered natural sea-water. Cultures were maintained at 20° C., with a photoperiod of 16:8 light:dark. After the first 24 hours post-fertilization, trocophora stage is present. Larvae were reared and fed with a planktonic alga, Pavlova lutheri, every day they were filtered, and water was changed. Veliger stage is reached about 48-72 hours after fertilization.

The test system of data set [5] is cysts (resting stage) of Scrippsiella trochoidea. Description: Inhibition of dynoflagellates cysts hatching. It counts as cell-based. Conditions: after 6 days. From the text: For this test, cysts (resting stage) of Scrippsiella trochoidea (Dinophyta) were used. Scrippsiella trochoidea (order Peridiniales, subfamily Calciodinelloideae) i.e. a non-toxic autotrophic orthoperidinioid dinoflagellate producing calcareous resting cysts which are abundant in coastal marine sediments. The maturation period for S. trochoidea cysts rang between 2 and 5 weeks.
S. trochoidea cysts are very convenient for experimental purposes because their sorting and culturing is comparatively easy, the cysts being relatively abundant in sediments.
Sediments were sampled in Mar Piccolo (Taranto). The utilized method allowed us to pick up the superficial sediment layer of a certain area entirely, where most of the cysts is present. The sample was immediately kept at dark at 4° C. Sediments collected about one year ago were utilized, in order to be sure that the hatching refractoriness period of cysts was finished. The sample (about 2 ml of sediment) was then dissolved in 0,45 μm filtered natural sea-water, sonified for 1 minute (Branson Sonifier) in order to brake sediment clots, resuspended in filtered sea-water and filtered on a Endecotts sieve, with a 20 μm steel mesh. […]

Molecules are shown by their SMILES.

For `CC1(S(=O)(=O)O)CC(=O)c2ccccc2C1=O.NC(=O)c1cccnc1` (centres unmarked) [MNB, menadione nicotinamide bisulphite], the MBC in data set [1] came out at 16 µg/mL. Also, the MIC in data set [1] was found to be 8 µg/mL. The “½ LIFE (hydrolysis)” value in data set [2] (pH 6, 8, in the dark) is reported as 48 h; in data set [2] (pH 9, in the dark), under 3 h. For the same compound, the LC1 in data set [3] (24 hours) is given as 3.170 mg/L; in data set [3] (48 hours) it was 0.548 mg/L. Further, the LC50 came to 7.625 µg/mL in data set [3] (24 hours); 1.840 µg/mL in data set [3] (48 hours); 0.156 µg/mL with Tigriopus fulvus (24 hours); 0.071 µg/mL in the data set on Tigriopus fulvus (48 hours); 0.039 µg/mL in the data set on Tigriopus fulvus (72 hours); 0.108 µg/mL in data set [4] (trocophorae). In addition, the median lethal concentration (LC50) in data set [4] (veliger) is 0.167 µg/mL; in data set [5], 2,65 mg/L.

The values are drawn from patent US20040232089A1, “Biocidal compounds for treating water” (VANETTA S.p.A., priority 2003, published 2004).
